Columns and labels:
[1] = Clearance in Sprague-Dawley rat at 2 mg/kg,iv measured upto 24 hrs by LC-MS/MS analysis; format: ADME, organism-based; conditions: in vivo
HeLa [2] = assay: Induction of cell cycle arrest in human HeLa cells assessed as accumulation of cells at S phase at 0.12 uM incubated for 24 hrs by propidium iodide staining based flow cytometry (reference value: 20.22 %); format: functional
[3] = AUC (0-infinity) in Sprague-Dawley rat at 10 mg/kg,po measured upto 24 hrs by LC-MS/MS analysis; format: ADME, organism-based; design: time < 24 hrs, dose 10 mg/kg, route po; conditions: in vivo
[4] = Half life in Sprague-Dawley rat at 10 mg/kg,po measured upto 24 hrs by LC-MS/MS analysis; format: ADME, organism-based; conditions: in vivo
[5] = Volume of distribution at steady state in Sprague-Dawley rat at 10 mg/kg,po measured upto 24 hrs by LC-MS/MS analysis; format: ADME, organism-based; conditions: in vivo
[6] = MRT (0-t) in Sprague-Dawley rat at 2 mg/kg,iv measured upto 24 hrs by LC-MS/MS analysis; format: ADME, organism-based; conditions: in vivo
[7] = AUC (0-t) in Sprague-Dawley rat at 10 mg/kg,po measured upto 24 hrs by LC-MS/MS analysis; format: ADME, organism-based; design: dose 10 mg/kg, time < 24 hrs, route po; conditions: in vivo
HeLa [8] = assay: Induction of cell cycle arrest in human HeLa cells assessed as accumulation of cells at S phase at 0.03 uM incubated for 24 hrs by propidium iodide staining based flow cytometry (reference value: 20.22 %); format: functional
HeLa [9] = assay: Induction of apoptosis in human HeLa cells assessed as necrotic cells at 0.12 uM incubated for 24 hrs Annexin V-FITC/PI staining based flow cytometry analysis (Rvb= 0.12 %); format: functional
[10] = Toxicity in Balb/c mouse xenografted with human A549 cells assessed as change in body weight at 60 mg/kg,ip administrated for 7 days; format: organism-based; conditions: in vivo, 168 h, time 7 day
[11] = Tmax in Sprague-Dawley rat at 2 mg/kg,iv measured upto 24 hrs by LC-MS/MS analysis; format: ADME, organism-based; conditions: in vivo
HeLa [12] = assay: Induction of apoptosis in human HeLa cells assessed as viable cells at 0.06 uM incubated for 24 hrs Annexin V-FITC/PI staining based flow cytometry analysis (Rvb= 95.9 %); format: functional; conditions: read-out: Activity
[13] = Oral bioavailability in Sprague-Dawley rat at 10 mg/kg measured upto 24 hrs by LC-MS/MS analysis; format: ADME, organism-based; conditions: in vivo
[14] = AUC (0-t) in Sprague-Dawley rat at 2 mg/kg,iv measured upto 24 hrs by LC-MS/MS analysis; format: ADME, organism-based; design: dose 2 mg/kg, time < 24 hrs, route iv; conditions: in vivo
HeLa [15] = assay: Induction of apoptosis in human HeLa cells assessed as necrotic cells at 0.06 uM incubated for 24 hrs Annexin V-FITC/PI staining based flow cytometry analysis (Rvb= 0.12 %); format: functional
[16] = Half life in Sprague-Dawley rat at 2 mg/kg,iv measured upto 24 hrs by LC-MS/MS analysis; format: ADME, organism-based; conditions: in vivo
HUVEC [17] = assay: Antivascular activity against human HUVEC cells assessed as inhibition of cell migration incubated for 24 hrs by wound healing assay; format: functional, cell-based
[18] = MRT (0-infinity) in Sprague-Dawley rat at 2 mg/kg,iv measured upto 24 hrs by LC-MS/MS analysis; format: ADME, organism-based; conditions: in vivo
Tubulin (Homo sapiens) = Tubulin (Homo sapiens) (UniProt P68371+Q9H4B7+P0DPH7+P68366+Q13509+Q71U36+P04350+Q3ZCM7+P07437+P68363+Q9BQE3+Q6PEY2+Q13885+Q9BVA1+Q9BUF5); assay: Inhibition of tubulin polymerization (unknown origin) at 10 uM measured for 20 mins in presence of GTP by spectrophotometry analysis relative to control; format: protein-complex assay
A549 = assay: Antitumor activity against human A549 cells xenografted in Balb/c mouse assessed as tumor growth inhibition at 60 mg/kg,ip administrated for 7 days; format: functional; conditions: A549, 168 h, time 7 day, read-out: TGI
[19] = AUC (0-infinity) in Sprague-Dawley rat at 2 mg/kg,iv measured upto 24 hrs by LC-MS/MS analysis; format: ADME, organism-based; design: dose 2 mg/kg, time < 24 hrs, route iv; conditions: in vivo
HeLa [20] = assay: Induction of apoptosis in human HeLa cells assessed as early apoptotic cells at 0.06 uM incubated for 24 hrs Annexin V-FITC/PI staining based flow cytometry analysis (Rvb= 1.85 %); format: functional
[21] = Cmax in Sprague-Dawley rat at 2 mg/kg,iv measured upto 24 hrs by LC-MS/MS analysis; format: ADME, organism-based; design: time < 24 hrs, dose 2 mg/kg, route iv; conditions: in vivo
[22] = MRT (0-infinity) in Sprague-Dawley rat at 10 mg/kg,po measured upto 24 hrs by LC-MS/MS analysis; format: ADME, organism-based; conditions: in vivo
[23] = Tmax in Sprague-Dawley rat at 10 mg/kg,po measured upto 24 hrs by LC-MS/MS analysis; format: ADME, organism-based; conditions: in vivo
[24] = Volume of distribution at steady state in Sprague-Dawley rat at 2 mg/kg,iv measured upto 24 hrs by LC-MS/MS analysis; format: ADME, organism-based; conditions: in vivo
HeLa [25] = assay: Induction of cell cycle arrest in human HeLa cells assessed as accumulation of cells at G2/M phase at 0.03 uM incubated for 24 hrs by propidium iodide staining based flow cytometry (reference value: 17.38 %); format: functional
HeLa [26] = assay: Induction of cell cycle arrest in human HeLa cells assessed as accumulation of cells at G0/G1 phase at 0.06 uM incubated for 24 hrs by propidium iodide staining based flow cytometry (reference value: 62.4 %); format: functional
HeLa [27] = assay: Induction of apoptosis in human HeLa cells assessed as necrotic cells at 0.03 uM incubated for 24 hrs Annexin V-FITC/PI staining based flow cytometry analysis (Rvb= 0.12 %); format: functional
HeLa [28] = assay: Induction of cell cycle arrest in human HeLa cells assessed as accumulation of cells at G0/G1 phase at 0.03 uM incubated for 24 hrs by propidium iodide staining based flow cytometry (reference value: 62.4 %); format: functional
HeLa [29] = assay: Induction of cell cycle arrest in human HeLa cells assessed as accumulation of cells at G0/G1 phase at 0.12 uM incubated for 24 hrs by propidium iodide staining based flow cytometry (reference value: 62.4 %); format: functional
HeLa [30] = assay: Induction of apoptosis in human HeLa cells assessed as late apoptotic cells at 0.12 uM incubated for 24 hrs Annexin V-FITC/PI staining based flow cytometry analysis (Rvb= 2.13 %); format: functional
HUVEC [31] = assay: Antivascular activity against human HUVEC cells assessed as inhibition of capillary tube formation incubated for 24 hrs by crystal violet staining based matrigel-transwell assay; format: functional, cell-based
[32] = MRT (0-t) in Sprague-Dawley rat at 10 mg/kg,po measured upto 24 hrs by LC-MS/MS analysis; format: ADME, organism-based; conditions: in vivo
HeLa [33] = assay: Induction of apoptosis in human HeLa cells assessed as early apoptotic cells at 0.03 uM incubated for 24 hrs Annexin V-FITC/PI staining based flow cytometry analysis (Rvb= 1.85 %); format: functional
HT-29 = assay: Antiproliferative activity against human HT-29 cells assessed as cell growth inhibition incubated for 48 hrs by MTT assay; format: functional, cell-based; conditions: HT-29, 48 h
HeLa [34] = assay: Induction of cell cycle arrest in human HeLa cells assessed as accumulation of cells at S phase at 0.06 uM incubated for 24 hrs by propidium iodide staining based flow cytometry (reference value: 20.22 %); format: functional

COc1cc(Cc2nnc3n2N=C(c2ccc(C)cc2)CS3)cc(OC)c1OC
CL [1]: 118 mL/min/kg
Activity (HeLa [2]): 8.4%
AUC(0-inf) [3]: 124 ng·h/mL
half-life [4]: 4.8 h
Vdss [5]: 1036.2 L/kg
MRT last at 24 h [6]: 1.2 h
AUC(0-t) at 24 h [7]: 122 ng·h/mL
Activity (HeLa [8]): 19.86%
Activity (HeLa [9]): 1.59%
Activity [10]: Non-Toxic
Tmax [11]: 6 min
viability at 0.06 µM (HeLa [12]): 74.7%
bioavailability [13]: 11.6%
AUC(0-t) at 24 h [14]: 307 ng·h/mL
Activity (HeLa [15]): 0.46%
half-life [16]: 5.3 h
Activity (HUVEC [17]): Dose-Dependent Effect
MRT [18]: 1.8 h
inhibition (Tubulin (Homo sapiens)): 43%
inhibition in vivo at 60 mg/kg (A549): 47.3%
AUC(0-inf) [19]: 310 ng·h/mL
Activity (HeLa [20]): 17.4%
Cmax [21]: 670 ng/mL
MRT inf [22]: 7.9 h
Tmax [23]: 4.3 h
Vdss [24]: 91.5 L/kg
Activity (HeLa [25]): 27.37%
Activity (HeLa [26]): 1.94%
Activity (HeLa [27]): 0.57%
Activity (HeLa [28]): 52.76%
Activity (HeLa [29]): 0.51%
Activity (HeLa [30]): 9.21%
Activity (HUVEC [31]): Dose-Dependent Effect
MRT last at 24 h [32]: 6.4 h
Activity (HeLa [33]): 18.6%
IC50 (HT-29): 570 nM
Activity (HeLa [34]): 28.35%

— ChEMBL document CHEMBL5370538, “Discovery of novel 6-p-tolyl-3-(3,4,5-trimethoxybenzyl)-7H-[1,2,4]triazolo[3,4-b][1,3,4]thiadiazine derivative as a potent tubulin inhibitor with promising in vivo antitumor activity” (Eur J Med Chem, 2023)
